Where two headings read alike, the source gives them in different places.
Assays:
GGT = GGT activity in spinal cord of MOG35-55 EAE mice; assay type: in vivo, mouse; details: FIG. 7e
Method: GGT activity assay. GGT activity was measured using the MaxDiscovery gamma-Glutamyl Transferase (GGT) Enzymatic Assay Kit (Bioo Scientific) according to the manufacturer's protocol. […]. For in vivo GGT activity assay, spinal cord tissues from the onset of MOG35-55 EAE or LPS-injected substantia nigra area at 12 h were prepared. Tissues were homogenized in 0.1 M Tris-HCl and centrifuged at 13,000 g for 30 min at 4° C. The supernatant was collected and subsequently assessed for GGT activity. The absorbance at 405 nm was detected with a SpectraMax M5 microplate reader (Molecular Devices) with SoftMax Pro 5.2 software (Phoenix Technologies Ltd.). The GGT activity in IU/1 was calculated following the manufacturer's protocol by multiplying the average increase in absorbance at 405 nm over 10 min GGT activity was also measured using a fluorescent probe, ProteoGREEN-gGlu (Goryo Chemical, Hokkaido, Japan), according to the manufacturer's protocol. Cultured BMDMs were plated on 96-well, black μ-clear-bottom microtiter plates (Greiner Bio-One) pre-coated with 25 μg/ml fibrin. […] The fluorescence intensity (excitation/emission filter pairs of 488 nm/520 nm) was measured using a SpectraMax M5 microplate reader (Molecular Devices) with SoftMax Pro 5.2 software (Phoenix Technologies).

in vitro [1] = details: rat, Cell Toxicity IC50 (uM) [cFib assay], cFib assay
BMDMs = assay type: cell-based, mouse; details: 24 h, FIG. 12
Method: FIGS. 12A-E. Effects of acivicin on microglia, macrophage and whole blood cell numbers. a, Representative images showing morphology and density of primary microglia treated with vehicle or acivicin for 48 h stained with nuclei marker Hoechst or CellMask Red Whole Cell Stain. Quantification of the total number of microglia. Data are representative of one experiment with technical replicates (open symbols). b, Representative confocal images showing morphology and density of control- and acivicin-treated BMDMs treated for 24 h. Scale bar, 100 μm. Insets depict digitally zoomed in areas of regions of interest. Quantification of the total number of BMDMs in the field of view. […] Cell viability of single CD45^+ cells was assessed by Sytox blue live/dead nuclei stain. Quantification of percent cell viability of CD45^+ BMDMs treated with acivicin or left untreated. Data are from 2 independent experiments with n=4 mice per group (mean±s.d.). d, Quantification of complete blood count analysis of white blood cells (WBCs), red blood cells (RBC), platelets (PLT) (left) and composition of WBCs (right) of blood samples from healthy mice treated with saline or acivicin for 10 days. […] Quantification of total microglia cell numbers in healthy mice treated with acivicin or saline. […]

in vitro [2] = details: rat
[3] = system: proinflammatory gene expression; test: qRT-PCR of spinal cord extracts of MOG35-55 EAE mice; assay type: in vivo, mouse; details: FIG. 7h
[4] = system: LPS-induced microglia activation; test: Image-based assay of LPS-induced microglia activation (HTS and dose response); assay type: cell-based, rat
naïve CD4+ T cells = test: Non-antigen-specific T-cell proliferation (anti-CD3/CD28); assay type: cell-based, mouse; details: 5, 0.5 or 0.05 μM, FIG. 14G, H
Method: T-cell proliferation assay. For antigen-specific T cell proliferation, näive CD4+ T cells were magnetically sorted from the TCR-transgenic 2D2 mice using naïve CD4+ T cell isolation kits (Miltenyi Biotec). […]. For non-antigen-specific T cell proliferation, naïve CD4^+ T cells were treated with acivicin and stimulated with mouse T-activator CD3/CD28 Dynabeads (Thermo Fisher Scientific) for 3 d. Cells were then fixed, permeabilized, and stained with FITC-conjugated anti-BrdU (BrdU Flow Kits, BD Biosciences).

CD4+ T cells = test: Flow cytometry of splenocyte T cells from MOG35-55 EAE mice; assay type: in vivo, mouse; details: splenocytes, 10 days treatment, FIG. 14C-F
Method: Flow cytometry. Cells were incubated with anti-mouse CD16/CD32 antibody (2.4G2) diluted in PBS with 2% FBS, and 2 mM EDTA at 4° C. for 15 min to block Fc receptor binding. Cells were stained with fluorescent-conjugated antibodies: CD3 (17A2), CD4 (GK1.5), CD8 (53-6.7), CD62L (MEL-14), CD44 (1M7), CD25 (3C7), CD11b (M1/70), CD45 (30-F11), and MHC II (M5/114.15.2). For surface labeling of GGT1, unconjugated mouse monoclonal anti-GGT1 (1:100; ab55138, Abcam) was incubated with surface markers for 1 hr at 4° C. Then FITC conjugated species-specific secondary antibody (1:100) was added for 1 hr at 4° C. For intracellular staining of IFN-γ and IL-17A, T cells were stimulated for 4 hr with Cell Activation Cocktail (BioLegend). Cells were then fixed with Cytofix/Cytoperm solution (BD Bioscience) and stained with antibodies to IL-17A (TC11-18H10.1), or IFN-γ (XMG1.2). Foxp3 (FJK-16S) staining was performed according to the manufacturer's protocol (eBioscience). Cells were analyzed by flow cytometry on an LSR II (BD Biosciences) with FlowJo software (Tree Star Inc.). Antibodies were purchased from BioLegend, BD Biosciences, or eBioscience.

N[C@H](C(=O)O)[C@@H]1CC(Cl)=NO1 [Acivicin, (2S)-2-amino-2-[(5S)-3-chloro-4,5-dihydro-1,2-oxazol-5-yl] acetic acid]
GGT activity in the EAE spinal cord (GGT): decreased | IC50 (in vitro [1]): > 20 µM | macrophage cell number in vitro (BMDMs): did not affect | IC50 (in vitro [2]): > 20000 nM | proinflammatory gene expression [3]: markedly reduced | IC50 ([4]; Rattus norvegicus, Microglia, 48 h, Table 1, dose response 0.001-20 μM, triplicates, primary rat microglia, 48 h, read-out: LPS IC50): 1 µM | inhibition at 10 µM ([4]; Rattus norvegicus, Microglia, 48 h, primary microglia HTS, LPS stimulation, increased cell size (>800 μm^2) as marker of activation, read-out: LPS % inhibition): 93% | IC50 ([4]; Rattus norvegicus, Microglia, LPS-induced microglia activation, dose response, read-out: LPS IC50 (uM) (Suppl. Table 7)): 1 µM | IC50 ([4]; Rattus norvegicus, Microglia, Table 7, read-out: LPS_IC50): 1.66 µM | IC50 ([4]; Rattus norvegicus, Microglia, dose response, LPS-induced microglia activation, read-out: LPS IC50): 1 µM | LPS-induced microglial activation ([4]; dose-dependent, FIG. 6a): inhibited | T cell proliferation (BrdU) without APCs, anti-CD3 and anti-CD28 (naïve CD4+ T cells): only in the presence of APCs | IFN-γ-producing T cells (CD4+ T cells): selectively decreased | IL-17-producing T cells (CD4+ T cells): selectively decreased
